According to PMC10302146, “Dual Anta-Inhibitors Targeting Protein Kinase CK1δ and A2A Adenosine Receptor Useful in Neurodegenerative Disorders” (Molecules, 2023):

Key:
[1] = tested on: N13 microglial cells; assay: N13 cell viability, ligand pretreatment 60 min then CK cocktail 48 h (CK1δ inhibition protocol); assay type: cell-based; conditions: for cell vitality: CK cocktail alone 69% ± 0.3 vs. control
[2] = tested on: N13 microglial cells; assay: N13 cell viability (CellTiter 96 AQueous One, MTS), ligands alone; assay type: cell-based; conditions: for cell viability: 60 min, alone
Experimental: Starting from these observations, since this double effect could be a suitable strategy for the treatment of chronic neurodegenerative diseases, in which neuroinflammation plays a crucial role, these compounds were tested on an in vitro model of neuroinflammation in comparison with the reference compounds. The experiments were performed using N13 microglial cells. The colorimetric method CellTiter 96® AQueous One Solution Cell Proliferation assay was used to determine the number of live cells in cytotoxicity or proliferation assays. The tetrazole compound MTS was bio-reduced by the cells into formazan, a colored product soluble in the cellular medium. The percentage of cell viability was analyzed through an absorbance reading at 492 nm. The concentrations of ligands were chosen based on the results of binding assays. Specifically, lower, similar, and higher concentrations than the Ki value were used.
Experiments were performed in triplicate.

[3] = tested on: N13 cell line; assay: Griess assay, nitrite production (antioxidant effect); assay type: cell-based; conditions: compound 2 4500 nM, ZM241385 10 nM
Source text: In addition, since oxidative stress has received extensive attention as one important entry point in the pathogenesis of neurodegenerative diseases, the potential antioxidant profile of compounds 1 and 2 was investigated. Oxidative stress and neuroinflammation play synergistic roles in the promotion of neurodegenerative disease progression. During a CNS insult, there is an activation of microglial cells, which stimulate immune responses to instigate tissue repair. If the triggering cause of the immune response is eradicated, the immune response resolves, but if the initial stress persists, it will lead to an overproduction of neurotoxic factors such as chemokines and proinflammatory cytokines such as Tumor Necrosis Factor-α (TNF-α) and Interleukin-1β (IL-1β). This pathological state will lead to an overproduction of ROS and a state of oxidative stress. High levels of ROS inactivate or damage proteins, leading to cellular degeneration and death. Furthermore, ROS can activate proinflammatory pathways, further promoting a harmful environment for vulnerable neurons. In light of this, the potential antioxidant capacity of compounds was studied. […] The combination of anti-inflammatory and antioxidant activities makes compound 2 particularly appealing in counteracting two of the factors involved in the pathogenesis of neurodegenerative pathologies.
The N13 cell line was introduced into a 96-well UV-VIS transparent plate at a population of 1 × 10^4 cells per well in 98 μL of DMEM and incubated overnight. […] After 24 h of incubation, the media from each well was transferred into another 96-well plate, and then 50 µL of the sulphanilamide solution was placed into the wells. After 10 min of incubation at room temperature (rt), 50 µL of the NED solution was dispensed to all wells, and the plate was incubated at rt for an additional 5–10 min. After half an hour, absorbance was measured in the microplate reader GENiosPro using a 520–550 nm filter. All measurements were reproduced in 3–5 replicates. The nitric oxide formation was investigated by measuring nitrite (NO^2−), which is one of two primary breakdown products of NO. A nitrite standard reference curve was used for quantitative evaluation of the concentration of NO^2− in samples.

[4] = target: human recombinant A2AAR; design: method as in PMID 37259317; conditions: cited from earlier work; for Ki: [3H]NECA, membranes from CHO cells stably transfected, means ± standard errors, read-out: KiA2A
[5] = target: human recombinant A1AR; design: method as in PMID 37259317; conditions: [3H]CCPA, membranes from CHO cells stably transfected; means ± standard errors; read-out: KiA1; cited from earlier work
[6] = tested on: N13 microglial cells; assay: N13 cell viability, CK cocktail 48 h pretreatment then ligand (A2AAR antagonist protocol); conditions: 60 min
Experimental: Given the nature of compounds, dual A2A/CK1δ anta-inhibitors, their neuroprotective effect against a neuroinflammatory insult was investigated following two different approaches aimed at studying the antagonist activity on the A2AAR and the inhibitor effect on CK1δ. […] The concentrations used were 35, 65, and 400 µM at 60 min of incubation.
N13 cells were plated in 96-well plates at the confluence of 1 × 10^4 cells/well and incubated overnight. Cells were divided into two groups in order to study the activity of compounds on A2AAR and CK1δ (Scheme 1). […] Cells of the second group were pretreated with 2 µL at different concentrations of understudy ligand, or the reference compound PF670462, for 30 or 60 min and then with further addition of a proinflammatory cocktail of cytokines for 48 h (Scheme 1). After treatment, 20 µL of CellTiter 96® AQueous One Solution Reagent was added to each well to a final volume of 100 µL. After 1 h of incubation, absorbance was measured at 492 nm in the microplate reader GENiosPro. Cell viability was estimated as the relation between the OD of treated cells and the OD of untreated cells in percentage. An untreated control and a control with the solvent were run. Experiments were performed in triplicate.

[7] = tested on: CK1δ; design: method as in PMID 37259317; conditions: cited from earlier work; for IC50: enzymatic inhibition
[8] = target: human recombinant A3AR; design: method as in PMID 37259317; conditions: [3H]HEMADO, membranes from CHO cells stably transfected; means ± standard errors; read-out: KiA3; cited from earlier work

Nc1nccc(-c2c(-c3ccc(F)cc3)ncn2C2CCCCC2)n1 [PF-670462, reference compound]
cell vitality ([1]; 0.05 µM 60 min before CK cocktail 48 h): 96% ± 3.1
cell vitality ([1]; 0.1 µM 60 min before CK cocktail 48 h): 78% ± 3.5
cell viability ([1]; 1 µM 60 min before CK cocktail 48 h): no significant decrease in cell viability
cell viability ([2]; 0.05 µM): does not affect cell viability
cell viability ([2]; 0.1 µM): 75% ± 1.4
cell viability ([2]; 1 µM): 60% ± 2.9

Nc1nc(NCCc2ccc(O)cc2)nc2nc(-c3ccco3)nn12 [ZM241385, reference compound]
compensation of oxidative stress caused by the CK cocktail [3]: successfully compensated
cell viability vs. control ([2]; 0.01 µM, absence of CK cocktail (reference used at 60 min)): 155% ± 1.9

N#CCNc1nc(Cl)nc2c1ncn2C1CCCC1 [compound 3, 2-((2-Chloro-9-cyclopentyl-9H-purin-6-yl)amino)acetonitrile]
Ki [4]: 7 ± 0.01 nM
Ki [5]: 0.118 ± 0.01 µM
cell vitality increase up to ([6]; 400 µM, after CK cocktail (Figure 3)): 93 ± 1.1%
counteraction of CK cocktail effect (cell viability) ([6]; 35, 65 and 400 µM, after CK cocktail): able to counteract the effect of the CK cocktail but to a lesser extent than compound 2
% Residual Activity at 40 μM ± sd [7]: 86 ± 1.6%
CK1δ inhibition, in words [7]: inactive as a CK1δ inhibitor
IC50 [7]: > 40000 nM
Ki [8]: 0.14 ± 0.035 µM

Nc1nc(Cl)nc2c1nc(-c1ccco1)n2C1CCCC1 [compound 4, 2-chloro-9-cyclopentyl-8-(furan-2-yl)-9H-purin-6-amine]
Ki [4]: 3480 ± 312 nM
A2AAR antagonism, in words [4]: inactive as an A2AAR antagonist
Ki [5]: 8.66 ± 1.52 µM
viability at 25 µM ([1]; N13, 25 µM 60 min before CK cocktail 48 h, CK cocktail alone 78% 1.3 vs. control (Figure 7)): 108%
viability at 50 µM ([1]; N13, 50 µM 60 min before CK cocktail 48 h, CK cocktail alone 78% 1.3 vs. control): 102%
viability at 500 µM ([1]; N13, 500 µM 60 min before CK cocktail 48 h, CK cocktail alone 78% 1.3 vs. control): 90%
% Residual Activity at 10 μM ± sd ([7]; 10 μM): 13 ± 24%
% Residual Activity at 40 μM ± sd [7]: 25 ± 9.6%
IC50 [7]: 360 ± 100 nM
Ki [8]: 5.96 ± 1.02 µM
